Patent US11098040B2, “Compounds and methods of use” (Ferro Therapeutics, Inc., priority 2018, dated 2021)

How the values were obtained:
[1] = tested on: SJSA-1; experiment: Cell viability assay (CellTiter Glo), osteosarcoma SJSA-1; format: cell-based; details: Homo sapiens, 96 hours
Procedure: (§1) Cell viability assay was performed to assess the potency of the compounds in human cancer cell lines KP4 (pancreatic ductal adenocarcinoma), MiaPaCa-2 (pancreatic carcinoma), AsPC-1 (pancreatic adenocarcinoma, ascites), 143B (osteosarcoma), and SJSA-1 (osteosarcoma). Selected compounds were also assayed in a human breast epithelial cell line MCF-10A, a nontumorigenic cell line as a control to assess differential activity. Cells at a density of 500-5,000 cells/well were seeded in 96-well plates and incubated at 37° C. overnight. A series of 9 different concentrations of compound stocks (500×) were created by 3-fold serial dilution in DMSO. These compounds were further diluted in culture media and then added to cells so that the final DMSO concentration was equal to 0.25% or less. After 96 hours of incubation, 50 μL of CellTiter Glo reagent (Promega) was added to each well and luminescence was measured after 10 minutes using EnVision (PerkinElmer). Compounds titrated from top concentration of up to 30 μM. The select compounds were tested initially from 30 μM as the top concentration in duplicates (range of 4.6 nM-30 μM). […] Luminescence from cells treated with DMSO alone was set as Max and % of inhibition was calculated as follows: Inhibition %=(Max-Sample value)/Max*100. Data was analyzed using XL-fit software (ID Business Solutions Ltd.). IC50, relative IC50, or % of top inhibition was calculated.
(§2) The results of the assay in sarcoma cell lines are given in Table 21a for HT-1080 luc2 (fibrosarcoma expressing a luciferase gene), Table 21b for 143B (osteosarcoma), and Table 21c for SJSA-1 (osteosarcoma).

[2] = tested on: 143B; experiment: Cell viability assay (CellTiter Glo), osteosarcoma 143B; format: cell-based; details: Homo sapiens, 96 h, osteosarcoma, 96 hours, CellTiter Glo, read-out: IC50 143B
Procedure: as §1, §2

[3] = tested on: MiaPaCa-2; experiment: Cell viability assay (CellTiter Glo), pancreatic carcinoma MiaPaCa-2; format: cell-based; details: Homo sapiens, MIA PaCa-2; pancreatic carcinoma, 96 hours, CellTiter Glo; read-out: IC50 MiaPaCa-2
Procedure: as §1
(§3) The results of the assay in the pancreatic cell lines are given in Table 15a for PANC1, Table 15b for MiaPaCa-2, and Table 15c for AsPC-1.

[4] = tested on: MCF-10A; experiment: Cell viability assay (CellTiter Glo), non-tumorigenic breast epithelial cell line MCF-10A; format: cell-based; details: Homo sapiens, 96 hours
Outline: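 Non-tumorigenic breast epithelial MCF-10A line, exposed for 96 hours to compound (top concentration up to 30 μM, 3-fold steps, duplicates, final DMSO 0.25% or less). ATP luminescence (CellTiter Glo) normalised to DMSO controls yields IC50, relative IC50 or % top inhibition; paclitaxel served as cytotoxic control.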

[5] = tested on: AsPC-1; experiment: Cell viability assay (CellTiter Glo), pancreatic adenocarcinoma AsPC-1; format: cell-based; details: Homo sapiens, ASPC1; pancreatic adenocarcinoma, ascites, 96 hours, CellTiter Glo; read-out: IC50 AsPC-1
Procedure: as §1, §3

[6] = Whole blood stability, mouse; format: in vitro ADME
From the text: (§4) The results of the assay on stability in blood and IC50 values for pancreatic cancer cell line KP4 are given below in Table 24.

[7] = Whole blood stability, human; format: in vitro ADME
From the text: as §4

[8] = tested on: KP4; experiment: Cell viability assay (CellTiter Glo), pancreatic ductal adenocarcinoma KP4; format: cell-based, human; details: Homo sapiens, KP-4, 96 h, pancreatic cancer cell line KP4, 96 hours, CellTiter Glo; read-out: IC50 μM KP4
Outline: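 Luminescent ATP readout (CellTiter Glo) after 96 h compound exposure, normalized to DMSO-treated cells as maximum. Compounds ran in duplicate, nine 3-fold steps from 30 μM down to 4.6 nM, final DMSO ≤0.25%; KP4 plated overnight at 1,000–10,000 cells/well. Outputs: IC50, relative IC50 or % top inhibition.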

Compound	IC50 [1]	IC50 [2]	IC50 [3]	IC50 [4]	IC50 [5]	further results
COC(=O)c1ccc([C@H]2c3[nH]c4ccccc4c3C[C@H](C(=O)OC(C)(C)C)N2C(=O)CCl)cc1 [Example 2]	236 nM	153 nM	60 nM	–	–	–
CC(C)OC(=O)[C@H]1Cc2c([nH]c3ccccc23)[C@H](c2ccc(C(=O)OC(C)(C)C)cc2)N1C(=O)CCl [Example 20]	149 nM	75 nM	37 nM	820 nM	–	–
CNS(=O)(=O)c1ccc([C@H]2c3[nH]c4ccccc4c3C[C@H](C(=O)OC)N2C(=O)CCl)cc1 [Example 22]	202 nM	74 nM	39 nM	3300 nM	–	–
COC(=O)[C@H]1Cc2c([nH]c3ccccc23)[C@H](c2ccc(S(=O)(=O)NCC3CC3)cc2)N1C(=O)CCl [Example 82]	–	–	–	3740 nM	61 nM	–
COC(=O)c1ccc([C@H]2c3[nH]c4ccc(Br)cc4c3C[C@H](C(=O)OC)N2C(=O)CCl)cc1 [Example 88]	–	–	–	460 nM	30 nM	–
[2H]C([2H])([2H])OC(=O)[C@H]1Cc2c([nH]c3ccccc23)[C@H](c2ccc(C(=O)OC)cc2)N1C(=O)CCl [CC]	–	–	–	1680 nM	118 nM	Whole Blood Stability % Remaining at 37° C. Mouse ([6]; 0 min): 100.0%; Whole Blood Stability % Remaining at 37° C. Mouse ([6]; 30 min): 0.0%; Whole Blood Stability % Remaining at 37° C. Mouse ([6]; 60 min): 0.0%; Whole Blood Stability % Remaining at 37° C. Human ([7]; 0 min): 100.0%; Whole Blood Stability % Remaining at 37° C. Human ([7]; 30 min): 63.8%; Whole Blood Stability % Remaining at 37° C. Human ([7]; 60 min): 33.5%; IC50 [8]: < 0.01 µM
[2H]C([2H])([2H])OC(=O)[C@H]1Cc2c([nH]c3ccccc23)[C@H](c2ccc(C(=O)OC(C)(C)C)cc2)N1C(=O)CCl [CA]	–	–	–	470 nM	23 nM	Whole Blood Stability % Remaining at 37° C. Mouse ([6]; 0 min): 100.0%; Whole Blood Stability % Remaining at 37° C. Mouse ([6]; 30 min): 80.8%; Whole Blood Stability % Remaining at 37° C. Mouse ([6]; 60 min): 33.2%; Whole Blood Stability % Remaining at 37° C. Human ([7]; 0 min): 100.0%; Whole Blood Stability % Remaining at 37° C. Human ([7]; 30 min): 86.9%; Whole Blood Stability % Remaining at 37° C. Human ([7]; 60 min): 48.9%; IC50 [8]: < 0.01 µM
C=CCOC(=O)c1ccc([C@H]2c3[nH]c4ccccc4c3C[C@H](C(=O)OC)N2C(=O)CCl)cc1 [Example 74]	–	–	–	6560 nM	107 nM	–
COC(=O)[C@H]1Cc2c([nH]c3ccccc23)[C@H](c2ccc(C(=O)N(C)C)cc2)N1C(=O)CCl [Example 8]	250 nM	143 nM	77 nM	–	–	–
CC(C)(C)OC(=O)[C@H]1Cc2c([nH]c3ccccc23)[C@H](c2ccc([N+](=O)[O-])cc2)N1C(=O)CCl [Example 11]	327 nM	135 nM	91 nM	–	–	–
COC(=O)[C@H]1Cc2c([nH]c3ccccc23)[C@H](c2ccc(C(=O)OCC34CC(F)(C3)C4)cc2)N1C(=O)CCl [Compound 76]	–	–	–	1110 nM	35 nM	–
COC(=O)[C@H]1Cc2c([nH]c3ccccc23)[C@H](c2ccc(C(=O)OCC3CCCC3)cc2)N1C(=O)CCl [Example 86]	–	–	–	330 nM	21 nM	–
COC(=O)[C@H]1Cc2c([nH]c3ccccc23)[C@H](c2ccc(C(=O)NCC3CC3)cc2)N1C(=O)CCl [Example 81]	–	–	–	2660 nM	73 nM	–
COC(=O)[C@H]1Cc2c([nH]c3ccc(Br)cc23)[C@H](c2ccc(C(=O)OCC3CC3)cc2)N1C(=O)CCl [Example 87]	–	–	–	460 nM	22 nM	–
COC(=O)[C@H]1Cc2c([nH]c3ccccc23)[C@H](c2ccc(C(=O)OCC3CCC3)cc2)N1C(=O)CCl [Example 85]	–	–	–	500 nM	29 nM	–
[2H]C([2H])(Cl)C(=O)N1[C@@H](c2ccc(C(=O)OC(C)(C)C)cc2)c2[nH]c3ccccc3c2C[C@@H]1C(=O)OC [BZ]	–	–	–	590 nM	30 nM	Whole Blood Stability % Remaining at 37° C. Mouse ([6]; 0 min): 100.0%; Whole Blood Stability % Remaining at 37° C. Mouse ([6]; 30 min): 65.4%; Whole Blood Stability % Remaining at 37° C. Mouse ([6]; 60 min): 30.7%; Whole Blood Stability % Remaining at 37° C. Human ([7]; 0 min): 100.0%; Whole Blood Stability % Remaining at 37° C. Human ([7]; 30 min): 73.5%; Whole Blood Stability % Remaining at 37° C. Human ([7]; 60 min): 40.8%; IC50 [8]: < 0.01 µM
CNC(=O)c1ccc([C@H]2c3[nH]c4ccccc4c3C[C@H](C(=O)OC)N2C(=O)CCl)cc1 [Example 7]	687 nM	273 nM	119 nM	–	–	–
COC(=O)[C@H]1Cc2c([nH]c3ccccc23)[C@H](c2ccc(C(=O)OC[C@]34C[C@H]5C[C@H](C[C@H](C5)C3)C4)cc2)N1C(=O)CCl [Example 6]	146 nM	87 nM	55 nM	3760 nM	–	–
COC(=O)[C@H]1Cc2c([nH]c3ccccc23)[C@H](c2ccc(C(=O)NC(C)(C)C)cc2)N1C(=O)CCl [Example 9]	69 nM	32 nM	12 nM	2270 nM	–	–
COC(=O)[C@H]1Cc2c([nH]c3ccccc23)[C@H](c2ccc(C(=O)NC(C(=O)O)C(C)(C)C)cc2)N1C(=O)CCl (stereo partly shown) [Example 10]	15300 nM	4410 nM	1590 nM	> 30000 nM	–	–
COC(=O)c1ccc([C@H]2c3[nH]c4ccccc4c3C[C@H](C)N2C(=O)CCl)cc1 [Example 77]	–	–	–	890 nM	74 nM	–
COC(=O)[C@H]1Cc2c([nH]c3ccccc23)[C@H](c2ccc(S(=O)(=O)N(C)C)cc2)N1C(=O)CCl [Example 23]	90 nM	34 nM	36 nM	2390 nM	–	–
COC(=O)[C@H]1Cc2c([nH]c3ccccc23)[C@H](c2ccc(OC(=O)C(C)(C)C)cc2)N1C(=O)CCl [Example 13]	157 nM	109 nM	131 nM	3050 nM	–	–
CC(C)(C)OC(=O)c1ccc([C@H]2c3[nH]c4ccccc4c3C[C@H](C(=O)OC(C)(C)C)N2C(=O)CCl)cc1 [Example 19]	215 nM	101 nM	63 nM	430 nM	–	–
[2H]C([2H])(Cl)C(=O)N1[C@@H](c2ccc(C(=O)OC)cc2)c2[nH]c3ccccc3c2C[C@@H]1C(=O)OC [Example 90]	–	–	–	1480 nM	132 nM	–
CN(C)C(=O)[C@H]1Cc2c([nH]c3ccccc23)[C@H](c2ccc(C(=O)OC(C)(C)C)cc2)N1C(=O)CCl [Example 21]	170 nM	90 nM	64 nM	1580 nM	–	–
COC(=O)[C@H]1Cc2c([nH]c3ccccc23)[C@H](c2ccc(C(=O)NCCNC(=O)OC(C)(C)C)cc2)N1C(=O)CCl [Example 16]	200 nM	104 nM	24 nM	1950 nM	–	–
COC(=O)[C@H]1Cc2c([nH]c3ccccc23)[C@H](c2ccc(OC(C)=O)cc2)N1C(=O)CCl [Example 12]	149 nM	81 nM	69 nM	1420 nM	–	–
